Here are results for eleven molecules from PubChem BioAssay (NCI).

Some test systems named below: EKVX NSCLC; HT29 colon; M14 melanoma; MDA-MB-231 breast; MDA-MB-435; OVCAR-4 ovarian; PC-3 prostate; RXF 393 renal; SK-MEL-28 melanoma; UACC-62 melanoma.
Assay in all cases: inhibition of tumour cell growth, NCI panel, 48 h

The structures appear in SMILES notation.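 In this assay, cells in 96-well plates receive the compound at five concentrations for 48 hours. Endpoints are linearly interpolated between the surrounding concentrations. Abbreviation: GI50, concentration required for 50% inhibition of growth. Definition used: TGI = concentration required for complete inhibition of growth.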

Turning to `CC1(C)[C@@H](OC(N)=O)[C@H]2O[C@H]2[C@]2(C=O)[C@H]3CC[C@]4(C)[C@@H](c5ccc(=O)oc5)[C@@H](Cl)C[C@]4(O)C3=CC[C@@H]12`, the GI50 with EKVX NSCLC is 0.00472 µM; with HT29 colon, 0.00581 µM; in the assay on M14 melanoma, 0.00639 µM; in the assay with MDA-MB-231 breast, 0.0109 µM; in the assay with MDA-MB-435 it was 0.00704 µM; in the assay with OVCAR-4 ovarian it was 0.00555 µM. For the same molecule, the GI50 in the assay with PC-3 prostate was 0.00667 µM; in the assay on RXF 393 renal, 0.00717 µM; in the assay on SK-MEL-28 melanoma it was 0.00794 µM; in the assay on UACC-62 melanoma, 0.00614 µM. The TGI with EKVX NSCLC was found to be 0.0102 µM; in the assay with HT29 colon, 0.0125 µM; in the assay with M14 melanoma it was 0.0177 µM; with MDA-MB-231 breast it was 0.0556 µM; with MDA-MB-435, 0.0187 µM; with OVCAR-4 ovarian, 0.0139 µM. Also, the TGI in the assay with PC-3 prostate was 0.0188 µM; in the assay on RXF 393 renal, 0.237 µM; in the assay with SK-MEL-28 melanoma it was 0.0268 µM; with UACC-62 melanoma, 0.0172 µM.

`Cc1ccc(-c2nc3ccc(Cl)cc3c(=O)n2N2C(=O)CSC2c2ccccc2Cl)cc1` (centres undefined): the GI50 is 4.15 µM with EKVX NSCLC; 60.2 µM in the assay on HT29 colon; 56.2 µM with M14 melanoma; 4.21 µM in the assay on MDA-MB-231 breast; greater than 100 µM in the assay on MDA-MB-435; 4.54 µM with OVCAR-4 ovarian. Also, the GI50 with PC-3 prostate was 83 µM; in the assay on RXF 393 renal, 6.46 µM; in the assay with SK-MEL-28 melanoma, 20.6 µM; in the assay with UACC-62 melanoma, 25.8 µM. Also, the TGI in the assay with EKVX NSCLC, in the assay with HT29 colon, with M14 melanoma, with MDA-MB-231 breast, in the assay with MDA-MB-435 and in the assay on OVCAR-4 ovarian was greater than 100 µM each time. Moreover, the TGI with PC-3 prostate, in the assay with RXF 393 renal, in the assay on SK-MEL-28 melanoma and in the assay with UACC-62 melanoma was greater than 100 µM each time.

Consider `C=C1CCC(CC[C@@H]2CC[C@]3(OC2)O[C@@]2(O)CC[C@]3(C)OC2(C)C)C(C)(C)[C@H]1C/C=C1/C(=O)OC[C@@H]1O` (some centres undefined), for which the TGI stood at 11.3 µM in the assay on EKVX NSCLC; 5.01 µM in the assay with HT29 colon; 12.3 µM in the assay on M14 melanoma; 3.72 µM in the assay on MDA-MB-231 breast; 5.82 µM in the assay on MDA-MB-435; 5.51 µM with OVCAR-4 ovarian. For the same molecule, the TGI with PC-3 prostate was 10.7 µM; in the assay on RXF 393 renal, 4.88 µM; in the assay with SK-MEL-28 melanoma, 3.58 µM; in the assay with UACC-62 melanoma, 3.8 µM.

Turning to `O=c1c2ccccc2c(=O)c2c1[nH]c1c(-c3ccccc3)c(-c3ccccc3)c(=O)c12`, the GI50 with EKVX NSCLC was 3.2 µM; in the assay with HT29 colon, 4.29 µM; in the assay on M14 melanoma it was 2.41 µM; in the assay with MDA-MB-231 breast, 4.97 µM; with MDA-MB-435, 3.24 µM; in the assay with OVCAR-4 ovarian it was 6.43 µM. The GI50 was 2.67 µM in the assay on PC-3 prostate, 1.54 µM in the assay on RXF 393 renal, 3.51 µM in the assay on SK-MEL-28 melanoma and 1.72 µM in the assay on UACC-62 melanoma. Moreover, the TGI in the assay on EKVX NSCLC is 11.8 µM; in the assay with HT29 colon, greater than 100 µM; in the assay on M14 melanoma it was 5.63 µM; in the assay with MDA-MB-231 breast, 43 µM; with MDA-MB-435, 9.42 µM; in the assay on OVCAR-4 ovarian, greater than 100 µM. Besides, the TGI with PC-3 prostate came to 11.1 µM; in the assay with RXF 393 renal it was 5.02 µM; with SK-MEL-28 melanoma, 14.3 µM; in the assay with UACC-62 melanoma, 3.38 µM.

Regarding `COc1cc(C(=O)c2cc(C)c3[nH]c4ccc(C)cc4c3c2C)cc(OC)c1OC`, the GI50 in the assay with EKVX NSCLC is less than 0.01 µM; in the assay on HT29 colon, less than 0.01 µM; in the assay on M14 melanoma, less than 0.01 µM; with MDA-MB-231 breast it was less than 0.01 µM; with MDA-MB-435, less than 0.01 µM; in the assay on OVCAR-4 ovarian, 0.0714 µM. In addition, the GI50 is less than 0.01 µM in the assay with PC-3 prostate, less than 0.01 µM in the assay with RXF 393 renal, 1.64 µM in the assay with SK-MEL-28 melanoma and less than 0.01 µM with UACC-62 melanoma. Further, the TGI with EKVX NSCLC was greater than 100 µM; with HT29 colon, 1.62 µM; with M14 melanoma it was greater than 100 µM; in the assay on MDA-MB-435 it was 0.136 µM; in the assay on OVCAR-4 ovarian, greater than 100 µM; with PC-3 prostate, greater than 100 µM. The TGI was 4.84 µM in the assay on RXF 393 renal, greater than 100 µM with SK-MEL-28 melanoma and greater than 100 µM in the assay with UACC-62 melanoma.

Consider `CCSc1nc(SCC)c2cn[nH]c2n1`, for which the GI50 in the assay with EKVX NSCLC was 18.9 µM; in the assay on HT29 colon, 62.9 µM; with M14 melanoma it was greater than 100 µM; with MDA-MB-231 breast, 23.2 µM; with MDA-MB-435 it was 49.6 µM; with OVCAR-4 ovarian, 84.1 µM. Also, the GI50 is 39 µM in the assay with PC-3 prostate, 29 µM in the assay with RXF 393 renal, 64.6 µM in the assay with SK-MEL-28 melanoma and 25.6 µM in the assay with UACC-62 melanoma. Moreover, the TGI in the assay on EKVX NSCLC, with HT29 colon, with M14 melanoma, in the assay with MDA-MB-231 breast, in the assay with MDA-MB-435 and in the assay on OVCAR-4 ovarian was greater than 100 µM throughout. Further, the TGI with PC-3 prostate is greater than 100 µM; with RXF 393 renal, greater than 100 µM; in the assay with SK-MEL-28 melanoma, greater than 100 µM; with UACC-62 melanoma it was 92.7 µM.

For the molecule `C#Cc1c(I)n(C2OC(CO[Si](C)(C)C(C)(C)C)C3OC(C)(C)OC32)c(=O)[nH]c1=O` (centres undefined), the GI50 is 20.6 µM in the assay with EKVX NSCLC; 19.2 µM in the assay with HT29 colon; 16.3 µM in the assay on M14 melanoma; 5.24 µM in the assay on MDA-MB-231 breast; 15 µM in the assay on MDA-MB-435; 17.8 µM with OVCAR-4 ovarian. The GI50 with PC-3 prostate was 1.72 µM; in the assay with RXF 393 renal it was 3.68 µM; in the assay with SK-MEL-28 melanoma it was 2 µM; in the assay with UACC-62 melanoma it was 17.9 µM. Also, the TGI in the assay on EKVX NSCLC worked out at 52.3 µM; with HT29 colon, 52.2 µM; in the assay on M14 melanoma it was 33.3 µM; with MDA-MB-231 breast, 19.9 µM; with MDA-MB-435, 31 µM; in the assay with OVCAR-4 ovarian, 37.6 µM. In addition, the TGI in the assay with PC-3 prostate was determined as 4.27 µM; with RXF 393 renal, 14.2 µM; in the assay with SK-MEL-28 melanoma, 4.43 µM; with UACC-62 melanoma it was 33.7 µM.

For `COc1cc(/C=C/c2ccc(OC)c(OC)c2)cc(OC)c1`, the TGI in the assay with EKVX NSCLC was greater than 100 µM; with HT29 colon, 94.4 µM; in the assay with M14 melanoma, 67.9 µM; in the assay with MDA-MB-231 breast, 52 µM; with MDA-MB-435, greater than 100 µM; with OVCAR-4 ovarian it was greater than 100 µM. In addition, the TGI is greater than 100 µM in the assay with PC-3 prostate, 50 µM with RXF 393 renal, greater than 100 µM in the assay on SK-MEL-28 melanoma and 63.5 µM in the assay with UACC-62 melanoma.

`CCCCON(OC(=O)c1ccc2ccc3cccc4ccc1c2c34)C(C)=O`: the GI50 with EKVX NSCLC is 27.3 µM; in the assay on HT29 colon, 25 µM; in the assay on M14 melanoma, 22.7 µM; in the assay on MDA-MB-231 breast it was 18.9 µM; in the assay on MDA-MB-435 it was 22.3 µM; with OVCAR-4 ovarian, 23.5 µM. The GI50 in the assay on PC-3 prostate was 22.2 µM; in the assay with RXF 393 renal it was 19.7 µM; in the assay with SK-MEL-28 melanoma, 27.1 µM; with UACC-62 melanoma, 21.5 µM. The TGI in the assay with EKVX NSCLC is greater than 100 µM; with HT29 colon, 74.9 µM; in the assay with M14 melanoma, 55.3 µM; with MDA-MB-231 breast, 40.2 µM; with MDA-MB-435 it was 50.4 µM; in the assay on OVCAR-4 ovarian, 59.9 µM. Also, the TGI in the assay on PC-3 prostate was 56.7 µM; in the assay with RXF 393 renal, 50.2 µM; with SK-MEL-28 melanoma it was 81.7 µM; in the assay with UACC-62 melanoma, 47.2 µM.

`COc1ccc(C(=O)COc2ccc(/C=C3\COc4ccc(OC)cc4C3=O)cc2)cc1`: the GI50 with EKVX NSCLC was 41.2 µM; in the assay on HT29 colon, 22.2 µM; in the assay with M14 melanoma it was 39.7 µM; in the assay with MDA-MB-231 breast it was 30 µM; in the assay with MDA-MB-435 it was 6.46 µM; with OVCAR-4 ovarian, 17.4 µM. Further, the GI50 is 12.8 µM with PC-3 prostate, 21.2 µM in the assay on RXF 393 renal, 19.9 µM with SK-MEL-28 melanoma and 48.9 µM with UACC-62 melanoma. Besides, the TGI was greater than 100 µM with EKVX NSCLC; greater than 100 µM in the assay with HT29 colon; greater than 100 µM in the assay on M14 melanoma; 92.5 µM in the assay on MDA-MB-231 breast; 78.5 µM in the assay on MDA-MB-435; 69.2 µM in the assay with OVCAR-4 ovarian. For the same molecule, the TGI is 47.1 µM in the assay with PC-3 prostate, 47.6 µM in the assay with RXF 393 renal, 56.9 µM in the assay with SK-MEL-28 melanoma and greater than 100 µM in the assay on UACC-62 melanoma.

With `COc1ccc(CC2NCCc3cc(OC)c(OC)cc32)cc1Br` (centres undefined), the TGI is greater than 100 µM in the assay on EKVX NSCLC; 57.9 µM in the assay with HT29 colon; 31 µM in the assay on M14 melanoma; 57.3 µM in the assay with MDA-MB-231 breast; 60 µM in the assay with MDA-MB-435; greater than 100 µM with OVCAR-4 ovarian. The TGI with PC-3 prostate is greater than 100 µM; with RXF 393 renal it was 59.1 µM; in the assay with SK-MEL-28 melanoma, 33.7 µM; in the assay with UACC-62 melanoma it was greater than 77.5 µM.
